# According to ChEMBL document CHEMBL1201862, “PubChem BioAssay data set” (2004):
#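 The compound was tested at five concentrations on cells cultured in 96-well plates, with a 48-hour exposure period. The concentration for 50% growth inhibition is given as GI50.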 Calls of active or inactive are those of the source. Rule as the data show it: active = GI50 up to about 1.1 µM and inactive = higher. Where a SMILES comes first, the peptide text is derived from it. The star is where a group is joined. Boc = CC(C)(C)OC(=O)*; Bn = c1ccc(C*)cc1
# Tests used:
# Experiment in all cases: NCI anticancer screen, dose series, 48 h
# [1] = system: EKVX
# [2] = system: SK-OV-3
# [3] = system: MDA-MB-231
# [4] = system: SK-MEL-5
# [5] = system: OVCAR-8
# [6] = system: HCT-116
# [7] = system: SK-MEL-2
# [8] = system: Hs-578T
# [9] = system: SNB-19
# [10] = system: 786-0
# [11] = system: NCI-H226
# [12] = system: UACC-62
# [13] = system: SF-268
# [14] = system: SW-620
# [15] = system: HCT-15
# [16] = system: COLO 205
# [17] = system: RPMI-8226
# [18] = system: MDA-MB-435
# [19] = system: NCI-H23
# [20] = system: NCI-H522
Compound,GI50 [1],GI50 [2],GI50 [3],GI50 [4],GI50 [5],GI50 [6],GI50 [7],GI50 [8],GI50 [9],GI50 [10],GI50 [11],GI50 [12],GI50 [13],GI50 [14],GI50 [15] [µM],GI50 [16],GI50 [17],GI50 [18],GI50 [19],GI50 [20]
COc1cc2oc(=O)cc(C)c2c(OC)c1OC,87.9 µM (inactive),> 100 µM (inactive),> 100 µM (inactive),> 100 µM (inactive),> 100 µM (inactive),> 100 µM (inactive),> 100 µM (inactive),> 100 µM (inactive),> 100 µM (inactive),> 100 µM (inactive),> 100 µM (inactive),> 100 µM (inactive),> 100 µM (inactive),> 100 µM (inactive),> 100,> 100 µM (inactive),> 100 µM (inactive),> 100 µM (inactive),> 100 µM (inactive),
CCOC(=O)C(c1ccsc1)P(=O)(OCC)OCC (centres undefined),23.9 µM (inactive),23 µM (inactive),,15.7 µM (inactive),16.6 µM (inactive),11.5 µM (inactive),20 µM (inactive),,21.5 µM (inactive),16.3 µM (inactive),18.4 µM (inactive),8.22 µM (inactive),23.2 µM (inactive),15.4 µM (inactive),15,13.3 µM (inactive),9.4 µM (inactive),,16 µM (inactive),3.89 µM (inactive)
Cc1ccsc1/C=N/Nc1nncc2ccccc12,> 100 µM (inactive),70.6 µM (inactive),> 100 µM (inactive),96.4 µM (inactive),> 100 µM (inactive),> 100 µM (inactive),14.1 µM (inactive),> 100 µM (inactive),> 100 µM (inactive),90.2 µM (inactive),> 100 µM (inactive),> 100 µM (inactive),93.3 µM (inactive),> 100 µM (inactive),> 100,> 100 µM (inactive),81.8 µM (inactive),> 100 µM (inactive),> 100 µM (inactive),
CCN1CC2=C(NC(=S)NC2c2cc(OC)c(OC)c(OC)c2)/C(=C/c2cc(OC)c(OC)c(OC)c2)C1 (centres undefined),15 µM (inactive),> 100 µM (inactive),34.1 µM (inactive),13.2 µM (inactive),21.7 µM (inactive),27.7 µM (inactive),70.8 µM (inactive),,36.8 µM (inactive),28.4 µM (inactive),27.5 µM (inactive),31.8 µM (inactive),6.31 µM (inactive),86.3 µM (inactive),32,20.1 µM (inactive),14.1 µM (inactive),28.3 µM (inactive),38.2 µM (inactive),10.6 µM (inactive)
N#C/C(C(=O)Nc1ccc(Cl)cc1)=C(/N)N1CCCC1,> 100 µM (inactive),> 100 µM (inactive),,> 100 µM (inactive),> 100 µM (inactive),> 100 µM (inactive),> 100 µM (inactive),,> 100 µM (inactive),> 100 µM (inactive),> 100 µM (inactive),> 100 µM (inactive),,> 100 µM (inactive),> 100,> 100 µM (inactive),> 100 µM (inactive),> 100 µM (inactive),> 100 µM (inactive),
Cc1cn(CC2=NCC(O)CN2)c(=O)[nH]c1=O (centres undefined),> 100 µM (inactive),> 100 µM (inactive),> 100 µM (inactive),> 100 µM (inactive),> 100 µM (inactive),> 100 µM (inactive),> 100 µM (inactive),,> 100 µM (inactive),> 100 µM (inactive),> 100 µM (inactive),> 100 µM (inactive),> 100 µM (inactive),> 100 µM (inactive),> 100,> 100 µM (inactive),> 100 µM (inactive),> 100 µM (inactive),> 100 µM (inactive),> 100 µM (inactive)
COc1cccc(-c2nc(-c3cnccn3)n(COCCO)n2)c1,,> 100 µM (inactive),> 100 µM (inactive),> 100 µM (inactive),> 100 µM (inactive),> 100 µM (inactive),,,> 100 µM (inactive),> 100 µM (inactive),,> 100 µM (inactive),> 100 µM (inactive),> 100 µM (inactive),> 100,> 100 µM (inactive),> 100 µM (inactive),> 100 µM (inactive),> 100 µM (inactive),> 100 µM (inactive)
N#Cc1nc(C2=C(Cl)c3ccccc3OC2)[nH]c1C#N,31.5 µM (inactive),36.7 µM (inactive),,19.1 µM (inactive),30.4 µM (inactive),,,38.3 µM (inactive),29.8 µM (inactive),32.1 µM (inactive),,22.9 µM (inactive),32.6 µM (inactive),24.7 µM (inactive),34.8,,24.4 µM (inactive),,25.1 µM (inactive),
CC(=O)OCC1OC(On2ccccc2=S)C(OC(C)=O)C(OC(C)=O)C1OC(C)=O (centres undefined),> 100 µM (inactive),> 100 µM (inactive),> 100 µM (inactive),> 100 µM (inactive),> 100 µM (inactive),> 100 µM (inactive),> 100 µM (inactive),> 100 µM (inactive),> 100 µM (inactive),> 100 µM (inactive),,> 100 µM (inactive),> 100 µM (inactive),36.6 µM (inactive),> 100,81.5 µM (inactive),,> 100 µM (inactive),> 100 µM (inactive),49.7 µM (inactive)
CC(C)Oc1c(O)c2c3c(oc(=O)n3C=CC2c2ccccc2)c1OC(C)C (centres undefined),22.3 µM (inactive),> 100 µM (inactive),30.3 µM (inactive),32.3 µM (inactive),31.9 µM (inactive),28.8 µM (inactive),15.7 µM (inactive),,20.3 µM (inactive),36.1 µM (inactive),27.6 µM (inactive),,,32 µM (inactive),12.8,22.1 µM (inactive),,> 10 µM (inactive),20.2 µM (inactive),
O=C(CSc1nc2ccc(I)cc2c(=O)n1Cc1ccccc1)NNC(=S)Nc1ccccc1,1.73 µM (inactive),> 100 µM (inactive),,13.8 µM (inactive),3.11 µM (inactive),8.63 µM (inactive),18 µM (inactive),7.78 µM (inactive),41.3 µM (inactive),7.4 µM (inactive),6.53 µM (inactive),33.4 µM (inactive),5.27 µM (inactive),33.6 µM (inactive),8.95,23.1 µM (inactive),12.6 µM (inactive),41.3 µM (inactive),15.1 µM (inactive),4.98 µM (inactive)
CC(C)CC(=O)CC(C)[C@]1(CCCOCc2ccccc2)C(=O)N2CCC3(C[C@@]24CCC[C@H]41)OCCO3 (some centres undefined),> 10 µM (inactive),> 10 µM (inactive),> 10 µM (inactive),> 10 µM (inactive),> 10 µM (inactive),,> 10 µM (inactive),,> 10 µM (inactive),> 10 µM (inactive),> 10 µM (inactive),,> 10 µM (inactive),> 10 µM (inactive),> 10,> 10 µM (inactive),> 10 µM (inactive),> 10 µM (inactive),> 10 µM (inactive),> 10 µM (inactive)
C=C1c2nc3ccccc3n2C=C(c2ccc(Cl)cc2)N1c1ccc(OCCN2CCCCC2)cc1,> 45 µM (inactive),> 45 µM (inactive),> 45 µM (inactive),> 45 µM (inactive),> 45 µM (inactive),> 45 µM (inactive),> 45 µM (inactive),,> 45 µM (inactive),> 45 µM (inactive),> 100 µM (inactive),> 45 µM (inactive),1.63 µM (inactive),> 45 µM (inactive),> 45,> 45 µM (inactive),2.43 µM (inactive),1.59 µM (inactive),> 45 µM (inactive),14.8 µM (inactive)
Cc1ccc(C(=O)Nc2ccc(S(=O)(=O)O)c3cc(S(=O)(=O)O)cc(S(=O)(=O)O)c23)cc1NC(=O)Nc1cc(C(=O)Nc2ccc(S(=O)(=O)O)c3cc(S(=O)(=O)O)cc(S(=O)(=O)O)c23)ccc1C,,,> 87.5 µM (inactive),> 87.5 µM (inactive),> 87.5 µM (inactive),> 87.5 µM (inactive),> 87.5 µM (inactive),,> 87.5 µM (inactive),> 87.5 µM (inactive),> 87.5 µM (inactive),> 87.5 µM (inactive),> 87.5 µM (inactive),> 87.5 µM (inactive),> 87.5,,> 87.5 µM (inactive),> 87.5 µM (inactive),> 87.5 µM (inactive),> 87.5 µM (inactive)
COC(=O)C(CC(C)C)NC(=O)C(C)NC(=O)C(Cc1ccc(OCc2ccccc2)cc1)NC(=O)C(COCc1ccccc1)NC(=O)OC(C)(C)C (centres undefined) (Boc-S(Bn)Y(Bn)AL-OMe; configuration not given here),> 100 µM (inactive),> 100 µM (inactive),,> 100 µM (inactive),> 100 µM (inactive),> 100 µM (inactive),,58.3 µM (inactive),> 100 µM (inactive),> 100 µM (inactive),> 100 µM (inactive),96.6 µM (inactive),> 100 µM (inactive),> 100 µM (inactive),,> 100 µM (inactive),> 100 µM (inactive),> 100 µM (inactive),> 100 µM (inactive),> 100 µM (inactive)
